Laboratory results reported in US11370841B2, “Methods of treating fibroblast growth factor 19-mediated cancers and tumors” (NGM Biopharmaceuticals, Inc., priority 2016, dated 2022).

Key:
FGF19-mediated HCC = test: Tumorigenicity study in db/db mice (AAV-SOCS3, tofacitinib); type: in vivo
Procedure: Blood parameters. Blood was collected from tail vein in un-anesthetized animals using microvette serum gel tubes (Sarstedt) for measurements of glucose, insulin, ALT, AST, ALP, bile acids, and FGF19 concentrations. Serum samples were prepared by centrifugation at 4° C. for 10 minutes at 6000 g after clotting at room temperature for 30 minutes. For HbA1c measurements, whole blood was collected after euthanasia by cardiac puncture into EDTA-tubes and quickly inverted multiple times. HbA1c (from whole blood samples) and liver enzyme (from serum samples) levels were measured on Cobas Integra 400 Clinical Analyzer (Roche Diagnostics). Serum FGF19 level was determined by FGF19 enzyme-linked immunosorbent assays (ELISA) (Biovendor). Serum insulin was assessed with ELISA kits from ALPCO. Concentrations of total bile acids in serum were determined using a 3β-hydroxysteroid dehydrogenase method (Diazyme). All assays were performed according to the manufacturers' instructions.
Histology and immunohistochemistry. Livers were fixed in 10% neutral-buffered formalin and embedded in paraffin. 5 μm sections were deparaffinized in xylenes, rehydrated sequentially in graded ethanol (100%, 95%, 80%, 70%, 50%, 2 minutes each). Hematoxylin and eosin staining was performed using standard methods. For immunohistochemical studies, liver sections were subjected to antigen retrieval in a citrate-based Antigen Unmasking Solution (Vector Laboratories), and incubated for 30 minutes with 3% H2O2 at room temperature to block endogenous peroxidase activity. Sections were stained with primary antibodies against glutamine synthetase (Thermo Fisher), BrdU, PCNA, or STAT3 in PBS containing 10% goat serum. Biotinylated secondary antibodies, ABC-HRP reagent (Vectastain ABC kit, #PK-6100, Vector Laboratories) and di-amine-benzidine (DAB) colorimetric peroxidase substrate (#SK-4100, Vector Laboratories) were used for detection. When indicated, sections were counterstained with hematoxylin. Digital imaging microscopy was performed using a Leica DM4000 microscope equipped with DFC500 camera and a scanning platform (Leica). Images for the entire liver section were acquired by stitching 70-96 fields together using Surveyor program for morphometric analysis. Glutamine synthetase-positive tumor areas were quantified using Measure/Count/Area tool from ImagePro software.
Tumorigenicity study in db/db mice. 11 to 12 week old db/db mice received a single intravenous dose of AAV containing either FGF19 or a control gene (green fluorescent protein). Body weight and blood glucose were monitored. […] Mice were euthanized 24 weeks post-AAV administration and examined for liver tumor formation by gross appearance and histology.

[1] = system: primary mouse hepatocytes; test: In vitro pSTAT3 activation in primary mouse hepatocytes; type: cell-based; details: isolated mouse hepatocytes, 50 ng/ml
Procedure: Primary mouse hepatocytes were isolated from 8-10 week old wild type mice (BioReclamation/IVT). Cells were diluted in attachment media, and cells were plated on collagen-coated 6-well plate (Becton Dickinson). Four hours later, cells were changed into M199 media supplemented with 10% FBS, 2 mM glutamine, 100 unit/ml penicillin, 100 unit/ml streptomycin, and cultured for 16 hours at 37° C. When indicated, 50 ng/ml FGF19 protein or 50 ng/ml mouse IL-6 (Peprotech) were added.
Cell extracts were prepared in 50 mM Tris-Cl, PH 7.2, 150 mM NaCl, 1% NP-40, 0.1% SDS, 0.5% sodium deoxycholate supplemented with a protease inhibitor cocktail (Roche) and phosphatase inhibitors (Sigma, phosphatase inhibitor cocktail set 2 and set 3), and protein concentrations were determined by BCA protein assay (Thermo Scientific).
Immunoblotting. Cell or tissue lysates were mixed with 4×SDS sample loading buffer (50 mM Tris-Cl, pH6.8, 2.5% SDS, urea, 4% β-mercaptoethanol), heated for 10 minutes at 95° C., and separated on 4-20% SDS-polyacrylamide gels (Life Technologies) in 1×MOPS running buffer. Proteins were transferred onto PVDF membranes (GE Healthcare). Membranes were blocked in TBST buffer (20 mM Tris-Cl, pH 7.6, 137 mM NaCl, 0.1% Tween-20) containing 5% non-fat dry milk for 1 hour at room temperature, and incubated with anti-pSTAT3^Y705, anti-total STAT3, anti-pERK, anti-total ERK, or anti-β-actin antibodies in blocking buffer at 4° C. overnight. Membranes were washed in TBST extensively, and bound proteins were detected with horseradish peroxidase-conjugated goat-anti-mouse IgG or goat-anti-rabbit IgG antibodies (GE Healthcare) for 1 hour at room temperature. […]
To investigate an in vitro direct effect of FGF19 on STAT3 activation in isolated hepatocytes, pSTAT3^Y705 levels in primary cultures of hepatocytes upon FGF19 stimulation were analyzed by western blotting. […] Cell lysates were prepared at the indicated time points following FGF19 stimulation and analyzed for phosphorylation of the various proteins.

[2] = system: primary mouse hepatocytes; test: In vitro BrdU incorporation in primary mouse hepatocytes; type: cell-based; details: 48 hours incubation
Procedure: FIGS. 2A-2E depict non-cell autonomous promotion of hepatocellular proliferation by FGF19. 11 week old mice (n=5 per group) were implanted with osmotic pumps releasing BrdU (8.5 mg/kg/day) and FGF19 protein (0.4 mg/kg/day). Livers were harvested 6 days post-implant. (FIG. 2A) Flow cytometry analysis of BrdU-labeled livers is shown. Representative histograms from hepatocytes stained with 7-ADD and anti-BrdU-APC are shown. (FIG. 2B) BrdU-positive hepatocytes as a percentage of total hepatocytes from vehicle (V)-treated (n=5) or FGF19-treated (n=5) mice were quantified by flow cytometry. (FIG. 2C) Shown are circulating FGF19 levels on day 6 post-implant of osmotic pumps. (FIG. 2D) Lack of proliferative effects of FGF19 on primary mouse hepatocytes. Primary cultures of hepatocytes isolated from mouse liver were incubated with recombinant FGF19 protein at the indicated concentrations for 48 hours and BrdU was added during the last 20 hours of incubation. BrdU incorporation was determined using a luminescence method. Mouse hepatocyte growth factor (mHGF) was included as a positive control. RLU, relative luminescence unit. (FIG. 2E) Lack of proliferative effects of FGF19 on primary human hepatocytes. Primary cultures of hepatocytes isolated from human liver were incubated with recombinant FGF19 protein. Human hepatocyte growth factor (hHGF) was included as a positive control. […]

[3] = diet with 0.01% tofacitinib from 4 weeks after AAV-FGF19, 20 weeks

C[C@@H]1CCN(C(=O)CC#N)C[C@@H]1N(C)c1ncnc2[nH]ccc12 [tofacitinib]
Average tumor load (FGF19-mediated HCC; [3]): reduced | Number of macroscopically detectable tumors (FGF19-mediated HCC; [3]): reduced | FGF19's effect on normalizing blood levels of HbA1c (FGF19-mediated HCC; tofacitinib in diet): no impact | FGF19's effect on normalizing blood levels of bile acids (FGF19-mediated HCC; tofacitinib in diet): no impact | FGF19's effect on normalizing blood levels of glucose (FGF19-mediated HCC; tofacitinib in diet): no impact | FGF19-induced liver tumor formation (FGF19-mediated HCC; tofacitinib initiated 4 weeks after AAV, euthanized at 24 weeks): inhibited

B1: IL-6: mouse IL-6 (Peprotech), positive control for pSTAT3 activation (protein, UniProt P08505 25-211, looked up)
Interleukin-6: FPTSQVRRGDFTEDTTPNRPVYTTSQVGGLITHVLWEIVEMRKELCNGNSDCMNNDDALAENNLKLPEIQRNDGCYQTGYNQEICLLKISSGLLEYHSYLEYMKNNLKDNKKDKARVLQRDTETLIHIFNQEVKDLHKIVLPTPISNALLTDKLESQKEWLRTKTIQFILKSLEEFLKVTLRSTRQT
STAT3 phosphorylation (pSTAT3 Y705) by western blotting [1]: robust elevated phosphorylation

B2: HGF: recombinant hepatocyte growth factor (Peprotech), positive control for BrdU incorporation (protein, UniProt Q08048 33-495; Q08048 496-728, looked up)
Hepatocyte growth factor …: QKKRRNTLHEFKKSAKTTLTKEDPLLKIKTKKVNSADECANRCIRNRGFTFTCKAFVFDKSRKRCYWYPFNSMSSGVKKGFGHEFDLYENKDYIRNCIIGKGGSYKGTVSITKSGIKCQPWNSMIPHEHSFLPSSYRGKDLQENYCRNPRGEEGGPWCFTSNPEVRYEVCDIPQCSEVECMTCNGESYRGPMDHTESGKTCQRWDQQTPHRHKFLPERYPDKGFDDNYCRNPDGKPRPWCYTLDPDTPWEYCAIKTCAHSAVNETDVPMETTECIQGQGEGYRGTSNTIWNGIPCQRWDSQYPHKHDITPENFKCKDLRENYCRNPDGAESPWCFTTDPNIRVGYCSQIPKCDVSSGQDCYRGNGKNYMGNLSKTRSGLTCSMWDKNMEDLHRHIFWEPDASKLNKNYCRNPDDDAHGPWCYTGNPLIPWDYCPISRCEGDTTPTIVNLDHPVISCAKTKQLR
Hepatocyte growth factor beta …: VVNGIPTQTTVGWMVSLKYRNKHICGGSLIKESWVLTARQCFPARNKDLKDYEAWLGIHDVHERGEEKRKQILNISQLVYGPEGSDLVLLKLARPAILDNFVSTIDLPSYGCTIPEKTTCSIYGWGYTGLINADGLLRVAHLYIMGNEKCSQHHQGKVTLNESELCAGAEKIGSGPCEGDYGGPLICEQHKMRMVLGVIVPGRGCAIPNRPGIFVRVAYYAKWIHKVILTYKL
BrdU signal [2]: strong BrdU signals
